Source: patent US20220390432A1, “METHODS OF CHARACTERIZING AND UTILIZING AGENT-CONDENSATE INTERACTIONS” (Whitehead Institute for Biomedical Research, priority 2019, published 2022)
“Also recorded” adds a separate entry of the source.

Tested on: nuclear condensates in HCT116 cells
Experiment: Cisplatin treatment followed by live cell imaging, condensate score
Format: cell-based, human
Conditions: HCT116, 50 μM cisplatin, up to 12 hours
Method: HCT116 cells with the indicated GFP knock-in were plated at 35 k per well of a glass bottom 8-well chamber slide. Following incubation at 37° C. overnight, cells were treated with 50 uM cisplatin in DMEM or a 1:1000 dilution of DMSO for 12 hours. […] For representative images of each of the six tagged lines treated with vehicle or 50 μM cisplatin, cells were imaged on the Zeiss LSM 880 confocal microscope with Airyscan detector with 63× objective at 37° C. Nuclei were segmented from images of treated cells by custom Python scripts using the scikit-image, open-cv, and […] Python packages. Nuclei were segmented by median filter, thresholding, separated by the watershed algorithm, and labeled by the scikit-image label function. […] A grey-level co-occurrence matrix (GLCM) was then generated from the projected signal, and the 'correlation' texture property from the GLCM was calculated per nucleus. One-way ANOVA followed by Sidak's multiple comparisons test was performed on the correlation values across conditions using GraphPad Prism version 8.2.0 for Mac (www.graphpad.com). Finally, to derive the condensation score, these values were subtracted from 1.

## N.N.[Cl][Pt][Cl] [cisplatin]
  effect on nuclear condensates in live cells: selective and progressive reduction in MED1 condensates; also recorded: Dissolution of MED1 condensates
Listed as Cisplatin
  effect on nuclear condensates in live cells: specifically disrupts MED1 and BRD4 condensates
